The values that follow come from patent EP0545103A1, “Insecticidal, acaricidal and molluscicidal 1-(substituted) thioalkylpyrroles” (priority 1991, dated 1993).

As usually defined, the inhibition is how much of the control response was suppressed.

One experiment deals with Plasmopara viticola. Kind of experiment: In vivo fungicidal activity, Grape Downy Mildew (GDM). The note with it: rate 400 ppm, rating, averaged. On the procedure: (§1) Test compounds are dissolved in acetone and diluted with deionized water containing about 0.05% TWEEN 20®, a polyoxyethylene sorbitan monolaurate surfactant manufactured by Atlas Chemical Industries, to give a concentration of 400 ppm. Subsequent dilutions are made with an 0.05% aqueous solution of TWEEN 20®.
(§2) Host plants are sprayed with test solution, dried and inoculated with fungi. When disease symptom development is optimal, the plants are rated for disease control according to the rating scale shown below. Each test contains inoculated treated plants, inoculated untreated plants and a reference standard.
(§3) When more than one test is run, the data are averaged.

In a further experiment the test system is Rhizoctonia solani. Kind of experiment: In vitro fungicidal activity, mycelial growth inhibition on agar (Rhiz). In kind it is cell-based. As to conditions: 48 h, two days. How it is done: (§4) Test compounds are dissolved in acetone, diluted with sterile, deionized water and mixed with a partially cooled, autoclaved, chemically defined agar medium. This mixture is poured into several 100mm x 15mm sterile plastic plates and allowed to solidify. The surface of each plate is inoculated with a single disc of mycelium and agar cut with an 8mm diameter cork borer from actively growing cultures of assay fungi on a chemically defined agar medium. The plates are incubated at room temperature. Growth inhibition is determined when the mycelial growth on unamended control media has reached the edge of the petri plates. The time interval varies depending on the growth rate of the fungus; two days for Pythium ultimum (pyth) and Rhizoctonia solani (Rhiz) , five days for Botrytis cinerea (Betry) and 7-10 days for Pseudocercosporella herpotrichoides (Pseudo). Each colony diameter is measured and compared with the untreated control and the percent inhibition is calculated as follows: [formula] Each test includes a solvent blank consisting of the formulation without a test compound in addition to the untreated control.
(§5) Assay fungi include the plant pathogens, Pythium ultimum (Pyth) and Rhizoctonia solani (Rhiz).
(§6) When more than one test is run the data are averaged.

The test system of experiment [1] is Erysiphe graminis, tritici. The experiment can be described thus: In vivo fungicidal activity, Wheat Powdery Mildew (WPM). The note with it: rating, averaged. On the procedure: as §1, §2, §3
Another experiment relates to Venturia inaequalis. The experiment can be described thus: In vivo fungicidal activity, Apple Scab (AS). As to conditions: rate 400 ppm, host plants sprayed then inoculated, rating, averaged. On the procedure: as §1, §2, §3
Experiment [2] relates to Diabrotic undecimpunctata howardi, 3rd instar southern corn rootworm. Kind of experiment: Southern corn rootworm soil test. Format: in vivo. On the set-up: key: 0: no effect; 10-25% kill; 26-35% kill; 36-45% kill; 46-55% kill; 56-65% kill; 66-75% kill; 76-85% kill; 86-99% kill; 9: 100% kill. The note with it: 50 (ppm as headed), mortality rating after 6 days. A digest of the protocol: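 Soil test with ten 3rd instar larvae per jar, mortality read after 6 days and missing larvae counted as dead; scores on a rating scale. Doses were 1.25 and 0.25 mg a.i. per jar, corresponding to roughly 50 and 10 kg/ha, loaded on talc from acetone and mixed into moist soil with millet seed as food.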

In another experiment the test system is Cercospora beticola. The experiment can be described thus: In vivo fungicidal activity, Sugarbeet Cercospora (SBC). The note with it: rate 400 ppm, rating, averaged. On the procedure: as §1, §2, §3
The test system of experiment [3] is Puccinia recondita, tritici. Kind of experiment: In vivo fungicidal activity, Wheat Leaf Rust (WLR). As to conditions: rate 400 ppm, rating, averaged. How it is done:
as §1, §2, §3

Experiment [4] relates to Spodoptera eridania, 3rd instar larvae, southern armyworm. Kind of experiment: Southern armyworm 3rd instar test, dipped limabean leaf. In kind it is in vivo. As to conditions: 1000 ppm. The procedure, abridged:
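Ten 3rd instar larvae fed on limabean leaves that had been dipped for 3 s in test solution and dried. Test solutions were diluted in water from a 10,000 ppm stock in 35% acetone/water. Ratings at days 3 and 5 covered death, feeding reduction and abnormal molting.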

Another experiment relates to Pythium ultimum. The experiment can be described thus: In vitro fungicidal activity, mycelial growth inhibition on agar (Pyth). Format: cell-based. As to conditions: Globisporangium ultimum, 48 h, two days. How it is done: as §4, §5, §6

`N#CSCn1c(Br)c(Br)c(C#N)c1Br` [Example 38, 1-[(cyanothio)methyl]-2,4,5-tribromopyrrole-3-carbonitrile]: in the experiment with Plasmopara viticola, the “Disease Control GDM” value was 3.0. The inhibition at 1 ppm in the experiment with Rhizoctonia solani (rate 1 ppm in agar) and with Pythium ultimum (rate 1 ppm in agar) was 1.5% each time. Besides, the figures for the inhibition at 10 ppm in the experiment with Rhizoctonia solani (rate 10 ppm in agar) and with Pythium ultimum (rate 10 ppm in agar) were 3.5% and 4%, respectively. Besides, the results for the inhibition at 25 ppm in the experiment on Rhizoctonia solani (rate 25 ppm in agar) and in the experiment with Pythium ultimum (rate 25 ppm in agar) were 5.8% and 4.5%, respectively. The “Disease Control WPM” value in experiment [1] (rate 400 ppm) is given as 0 (0). For the same compound, the “Disease Control AS” value in the experiment with Venturia inaequalis is on record as 2.0. Also, the “SOUTHERN CORN ROOTWORM” value in [2] was found to be 0. The “Disease Control SBC” value in the experiment with Cercospora beticola is 0 (0). Moreover, in [3], the “Disease Control WLR” value is given as 5.0. Moreover, the “ARMYWORM Day 3” value in experiment [4] (rating at 3 days) is 9 (100% kill). The “ARMYWORM Day 5” value in experiment [4] (rating at 5 days) was 9 (100% kill).

For the compound `CC(C)OP(=S)(OC(C)C)SCn1c(Br)c(Br)c(C#N)c1Br` [O,O-diisopropyl S-(2,3,5-tribromo-4-cyanopyrrole-1-yl)methyl ester phosphorodithioic acid], the “Disease Control GDM” value in the experiment on Plasmopara viticola was 0 (0). Besides, the “Disease Control WPM” value in [1] (rate 25 ppm) is 0 (0); in experiment [1] (rate 100 ppm), 4.0; in experiment [1] (rate 400 ppm) it was 7.0. The “Disease Control AS” value in the experiment on Venturia inaequalis is given as 0 (0). Besides, the “Disease Control SBC” value in the experiment with Cercospora beticola was 0 (0). The “Disease Control WLR” value in experiment [3] was 0 (0).
